Assay results: patent publication US7150974B1, “Parathyroid hormone receptor binding method” (The General Hospital Corporation, priority 1991, dated 2006)

Target: T1, opossum kidney PTH/PTHrP receptor clone, OK-H (Didelphis virginiana, UniProt P25107, I132F/S86P)
T1 construct: expressed in transfected cells; host or cells: COS cells, transient, plasmid OK-H (pcDNA I)
Assay: Intracellular free calcium, COS cells expressing OK-H
Type: cell-based
Settings: FIG. 10, smaller extent, or not at all, compared with OK-O or R15B
Experimental: Measurements of intracellular calcium levels in cells transfected with PTH/PTHrP receptor cDNAs were performed using Fura-2 AM (acetomethoxy ester of Fura-2, Molecular Probes Inc., Eugene, Oreg.) loaded cells. Details of the methodology are:
Coverslips plated with COS cells were incubated in Fura-2 AM loading buffer containing, in mM: HEPES (N-[2-Hydroxyethyl]piperazine-N′-[2-ethanesulfonic acid]), 20; CaCl2, 1; KCl 5; NaCl, 145; MgSO4, 0.5; NaHCO3, 25; K2HPO4, 1.4; glucose, 10; and Fura-2 AM 91-(2-5′-carboxyoxazol-2′-yl)-6-aminobenzofuran-5oxy-(2′-amino-5′-methylphenoxy)ethane-N,N,N′,N′-tetraaecetic acid acetomethoxy ester), 0.5; at 37° C. at pH7.4, aerated with 95% air and 5% CO2 for 45 minutes. Cells loaded with Fura-2 AM were then washed with a modified Krebs-Heinseleit (KH) buffer containing, in mM: HEPES, 20; CaCl2, 1; KCl, 5; NaCl, 145; MgSO4, 0.5; Na2HPO4, 1; glucose, 5; pH7.4. To check that cleavage of the ester occurred, the excitation spectra after different times of Fura-2 AM incubation were measured. […]
To measure fluorescence of individual cells, the cover slips were placed in a microscope tissue chamber (Biophysica Technologies, Inc., MD). […] Fura-2 fluorescence was excited with a 75 watt Xenon arc lamp placed at the focal point of a condenser (Photon Technologies International (PTI) Inc., NJ). […]

T1 sequence (P25107 other isoform, or with tags, fused parts or gaps S86P/I132F): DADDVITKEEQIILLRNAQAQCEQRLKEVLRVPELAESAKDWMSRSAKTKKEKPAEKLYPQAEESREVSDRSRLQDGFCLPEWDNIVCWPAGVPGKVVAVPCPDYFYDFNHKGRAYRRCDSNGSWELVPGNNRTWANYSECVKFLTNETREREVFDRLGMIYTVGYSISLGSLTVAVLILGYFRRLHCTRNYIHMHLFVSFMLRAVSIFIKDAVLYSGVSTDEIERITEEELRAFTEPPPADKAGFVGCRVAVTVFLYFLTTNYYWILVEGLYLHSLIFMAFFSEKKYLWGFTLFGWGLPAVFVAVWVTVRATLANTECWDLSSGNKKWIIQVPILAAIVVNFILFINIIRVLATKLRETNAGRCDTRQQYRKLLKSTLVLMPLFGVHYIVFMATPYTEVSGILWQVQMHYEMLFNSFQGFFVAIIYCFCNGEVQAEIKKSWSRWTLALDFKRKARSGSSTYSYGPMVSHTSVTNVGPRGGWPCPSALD

Question: How did the “increase in concentration of intracellular free calcium (mean)” value turn out when [Nle^8,18, Tyr^34]bPTH(1-34)amide was run?
Answer: 39 nM
